The values below come from patent US10597405B2, “Chemical compounds” (ASTRAZENECA AB, priority 2017, dated 2020).

Usually pIC50 stands for the IC50 on a negative log10 scale, so that one unit is a factor of ten. Read a high pIC50 as a small IC50.

pIC50: −log10 of the molar value. A value given as a limit tells only on which side of the number the result lay.

Experiment [1] concerns the target T1, KRasG12C (Homo sapiens, UniProt P01116, G12C).
T1 construct: biotin (biotinylated); made in house
Description: KRasG12C functional assay (HTRF nucleotide exchange / Raf RBD binding). The note with it: GDP loaded biotinylated KRasG12C, samples incubated 4 hrs, FRET readout; single experiment or average of two or more. It counts as biochemical. The protocol: KRasG12C Functional Assay
All enzyme and substrate solutions were prepared in assay buffer containing 20 mM HEPES (pH 7.5), 5 mM MgCl2, 150 mM NaCl, and 0.01% Tween 20. […] In a separate mix 20 nM GST-Raf Ras binding domain (GST-Raf RBD, purified in house) and 4 μg/ml anti-GST XL665 antibody (Cisbio) was prepared in assay buffer containing 50 mM Potassium Fluoride and 0.05 mg/ml BSA and equilibrated for 4 hours before adding 0.6 μM Guanosine 5′-[γ-thio]triphosphate (GTPγS, Sigma) and 0.08 μM SOS (purified in house). 5 μl of the GST-RAF RBD mix was then dispensed into each well of the assay plate. […] This is detected simultaneously via the specific binding interaction between active GTPγS KRas^G12C with GST-Raf RBD which brings the europium and XL665 into close proximity enabling an increased FRET signal to be detected on a Pherastar (BMG) plate reader equipped with the HTRF filter module. […] IC50 values were calculated from normalised dose-response response FRET data curve fitted in Genedata screener (Basel, Switzerland).
Background: Time-resolved FRET reads energy transfer from a long-lived donor to a nearby acceptor.

Experiment [2] has as its target T1, KRasG12C. As to the kind of experiment: KRasG12C Mass Spectrometry adducting assay. The following applies: 10 μM test compound, 4 μM KRasG12C, 4 hours reaction; single experiment or average of two or more. It counts as binding. On the procedure: KRasG12C Mass Spectrometry Adducting Assay
Enzyme solutions were prepared in assay buffer containing 20 mM HEPES (pH 7.5), 5 mM MgCl2, and 150 mM NaCl. 4 μM GDP loaded biotinylated KRas^G12C was prepared in assay buffer and 50 μl added into each well of a 96 well polypropylene assay plate (Greiner, #651201) containing 500 nl of 1 mM test compounds (final concentration 10 μM), this was allowed to react for 4 hours before the addition of 50 μl 1% Formic acid to quench the reaction. The plate was sealed before reading on a Xevo G2 QTOF (Waters) and Acquity LC system (Waters). 10 μl of sample was injected onto a Xbridge BEH300; C4; 3.5 um; 2.1×50 mm column (Waters) running a 3 minute gradient. Blank samples were run in between each test sample.
Data was analysed in Mass Lynx software (Waters), the Total ion count (TIC) trace was used and the eluted protein peak data combined. Using the combined spectrum the data was deconvoluted using MaxEnt1 method. The peak area for apo-protein KRas^G12C (APO) and KRAS+relative cmpd mass (adduct) were measured, and a percentage adduct was calculated using the following calculation: Percent adduct=100*(area of adduct peak/(sum of APO+adduct peaks)

In experiment [1], `C=CC(=O)N1CCN2c3c(cnc4cc(-c5c(C)ccc6[nH]cnc56)c(Cl)cc34)OC[C@H]2C1` (single isomer, unassigned) [Compound 66] had a pIC50 of 6.18. For the same compound, in experiment [2], the “KRasG12C M.S. Binding Mean adduct %” value was 25%.
For `C=CC(=O)N1CCN2c3c(cnc4c(C)c(-c5c(O)cccc5F)c(Cl)cc34)OC[C@H]2C1` (single isomer, unassigned) [Compound 38], in experiment [1], the pIC50 was 5.01. The “KRasG12C M.S. Binding Mean adduct %” value in experiment [2] came out at 7%.
For the compound `C=CC(=O)N1CCN2c3c(cnc4cc(-c5c(C)ccc6[nH]ncc56)c(Cl)cc34)OC[C@H]2C1` (single isomer, unassigned) [Example 3], the pIC50 in experiment [1] was 7.09. For the same compound, the “KRasG12C M.S. Binding Mean adduct %” value in experiment [2] is recorded as 93%.
`C=CC(=O)N1CCN2c3c(cnc4cc(-c5c(O)cccc5F)c(Cl)cc34)NC[C@H]2C1` [Example 13, 1-((4aS)-11-Chloro-10-(2-fluoro-6-hydroxyphenyl)-1,2,4,4a,5,6-hexahydro-3H-pyrazino[1′,2′:4,5]pyrazino[2,3-c]quinolin-3-yl)prop-2-en-1-one] gave a pIC50 in experiment [1] of 6.41. Besides, the “KRasG12C M.S. Binding Mean adduct %” value in experiment [2] amounted to 86%.
As for `C=CC(=O)N1CCN2c3c(cnc4cc(-c5c(O)cccc5F)c(Cl)cc34)N(C)C(=O)C2(C)C1` (single isomer, unassigned) [Compound 33, 11-Chloro-10-(2-fluoro-6-hydroxyphenyl)-4a,6-dimethyl-3-(prop-2-enoyl)-2,3,4,4a-tetrahydro-1H-pyrazino[1′,2′:4,5]pyrazino[2,3-c]quinolin-5(6H)-one], the pIC50 in experiment [1] was 6.13. For the same compound, the “KRasG12C M.S. Binding Mean adduct %” value in experiment [2] is recorded as 87%.
In turn, `C=CC(=O)N1CCN2c3c(cnc4c(OC)c(-c5c(O)cccc5F)c(Cl)cc34)OC[C@H]2C1` (single isomer, unassigned) [Compound 24] had a pIC50 in experiment [1] of 7.15. In experiment [2], the “KRasG12C M.S. Binding Mean adduct %” value is given as 96%.
In the case of `C=CC(=O)N1CCN2c3c(cnc4cc(-c5c(C)ccc6cc[nH]c(=O)c56)c(Cl)cc34)OC[C@H]2C1` (single isomer, unassigned) [Compound 69], the pIC50 in experiment [1] was 5.57. For the same compound, the “KRasG12C M.S. Binding Mean adduct %” value in experiment [2] worked out at 12%.
For `C=CC(=O)N1CCN2c3c(cnc4cc(-c5c(C)ccc6[nH]c(=O)n(C)c56)c(Cl)cc34)OC[C@H]2C1` (single isomer, unassigned) [Compound 68], in that order: 4.94 and 4%.
For `C=CC(=O)N1C[C@@H]2C(=O)N(C)c3cnc4c(F)c(-c5c(O)cccc5F)c(Cl)cc4c3N2C[C@H]1C` (single isomer, unassigned) [Example 21], in that order: 5.02 and 15%.
On the same counts, the results for `CN(C)C/C=C/C(=O)N1CCN2c3c(cnc4cc(-c5c(O)cccc5F)c(Cl)cc34)OC[C@H]2C1` [Example 9, (2E)-1-[(4aR)-11-Chloro-10-(2-fluoro-6-hydroxyphenyl)-1,2,4a,5-tetrahydropyrazino[1′,2′:4,5][1,4]oxazino[2,3-c]quinolin-3(4H)-yl]-4-(dimethylamino)but-2-en-1-one] are 6.47 and 74%.
For the compound `C=CC(=O)N1CCN2c3c(cnc4c(F)c(-c5c(O)cccc5F)c(Cl)cc34)N(C)C(=O)C2C1` (single isomer, unassigned) [Example 18, 3-acryloyl-11-chloro-9-fluoro-10-(2-fluoro-6-hydroxyphenyl)-6-methyl-2,3,4,4a-tetrahydro-1H-pyrazino[1′,2′:4,5]pyrazino[2,3-c]quinolin-5(6H)-one], the pIC50 in experiment [1] was 5.46. In addition, the “KRasG12C M.S. Binding Mean adduct %” value in experiment [2] was 3%.
On to `C=CC(=O)N1CCN2c3c(cnc4cc(-c5c(C)ccc6[nH]cnc56)c(Cl)cc34)OC[C@H]2C1` (single isomer, unassigned) [Compound 65], for which the pIC50 in experiment [1] was 7.33. In experiment [2], the “KRasG12C M.S. Binding Mean adduct %” value was 95%.
On to `C=CC(=O)N1CCN2c3c(cnc4cc(-c5c(O)cccc5F)c(Cl)cc34)N(C)C(=O)[C@@H]2C1` [Example 16, (4aS)-3-Acryloyl-11-chloro-10-(2-fluoro-6-hydroxyphenyl)-6-methyl-2,3,4,4a-tetrahydro-1H-pyrazino[1′,2′:4,5]pyrazino[2,3-c]quinolin-5(6H)-one], for which the pIC50 in experiment [1] was 5.57. Further, the “KRasG12C M.S. Binding Mean adduct %” value in experiment [2] came out at 18%.
For `C=CC(=O)N1CCN2c3c(cnc4c(F)c(-c5c(O)cccc5F)c(Cl)cc34)OC[C@H]2C1` (single isomer, unassigned) [Example 7], in that order: 7.70 and 95%.
For `C=CC(=O)N1CCN2c3c(cnc4cc(-c5c(O)cccc5F)c(Cl)cc34)N(C)C(=O)[C@H]2C1` [Example 15, (4aR)-3-Acryloyl-11-chloro-10-(2-fluoro-6-hydroxyphenyl)-6-methyl-2,3,4,4a-tetrahydro-1H-pyrazino[1′,2′:4,5]pyrazino[2,3-c]quinolin-5(6H)-one], in that order: 6.84 and 100%.
In turn, `C=CC(=O)N1CCN2c3c(cnc4cc(-c5c(O)cccc5F)c(Cl)cc34)OC[C@H]2C1` (single isomer, unassigned) [Example 1] showed a pIC50 in experiment [1] of 6.73. Moreover, the “KRasG12C M.S. Binding Mean adduct %” value in experiment [2] was determined as 96%.
For `C=CC(=O)N1CCN2c3c(cnc4cc(-c5c(C)ccc6cc[nH]c(=O)c56)c(Cl)cc34)OC[C@H]2C1` (single isomer, unassigned) [Compound 70], in that order: 7.31 and 94%.
As to `C=CC(=O)N1CCN2c3c(cnc4cc(-c5c(C)ccc6[nH]c(=O)n(C)c56)c(Cl)cc34)OC[C@H]2C1` (single isomer, unassigned) [Compound 67], the pIC50 in experiment [1] is 7.33. The “KRasG12C M.S. Binding Mean adduct %” value in experiment [2] was found to be 97%.
In experiment [1], `C=CC(=O)N1CCN2c3c(cnc4c(F)c(-c5c(C)ccc6[nH]ncc56)c(Cl)cc34)N(C)C(=O)[C@H]2C1` (single isomer, unassigned) [Compound 49] had a pIC50 of 7.33. Further, the “KRasG12C M.S. Binding Mean adduct %” value in experiment [2] is on record as 95%.
For `C=CC(=O)N1CCN2c3c(cnc4c(F)c(-c5c(O)cccc5F)c(Cl)cc34)N(C)C(=O)C2C1` (single isomer, unassigned) [Example 19, 3-acryloyl-11-chloro-9-fluoro-10-(2-fluoro-6-hydroxyphenyl)-6-methyl-2,3,4,4a-tetrahydro-1H-pyrazino[1′,2′:4,5]pyrazino[2,3-c]quinolin-5(6H)-one], in that order: < 5.04 and 3%.
On the same counts, the results for `C=CC(=O)N1CCN2c3c(cnc4c(C)c(-c5c(O)cccc5F)c(C)nc34)N(C)C(=O)[C@H]2C1` (single isomer, unassigned) [Compound 92] are 7.09 and 97%.
`C=CC(=O)N1CCN2c3c(cnc4c(F)c(-c5c(C)ccc6c5C(=O)NC6)c(Cl)cc34)OC[C@H]2C1` (single isomer, unassigned) [Compound 86] gave a pIC50 in experiment [1] of 7.39. Further, the “KRasG12C M.S. Binding Mean adduct %” value in experiment [2] was 95%.
The compound `C=CC(=O)N1C[C@@H]2COc3cnc4cc(-c5c(O)cccc5F)c(Cl)cc4c3N2C[C@H]1C` [Example 11, 1-[(2R,4aR)-11-Chloro-10-(2-fluoro-6-hydroxyphenyl)-2-methyl-1,2,4a,5-tetrahydropyrazino[1′,2′:4,5][1,4]oxazino[2,3-c]quinolin-3(4H)-yl]prop-2-en-1-one] showed a pIC50 in experiment [1] of 7.33. In addition, the “KRasG12C M.S. Binding Mean adduct %” value in experiment [2] came to 93%.
`C=CC(=O)N1CCN2c3c(cnc4cc(-c5c(O)cccc5F)c(Cl)c(OC)c34)OC[C@H]2C1` [Compound 83, 1-[(4aR)-11-Chloro-10-(2-fluoro-6-hydroxyphenyl)-12-methoxy-1,2,4a,5-tetrahydropyrazino[1′,2′:4,5][1,4]oxazino[2,3-c]quinolin-3(4H)-yl]prop-2-en-1-one] had a pIC50 in experiment [1] of 6.59. Further, in experiment [2], the “KRasG12C M.S. Binding Mean adduct %” value came to 77%.
On the same counts, the results for `C=CC(=O)N1CCN2c3c(cnc4cc(-c5c(O)cccc5F)c(Cl)cc34)N(C)C[C@H]2C1` [Example 14, 1-((4aS)-11-chloro-10-(2-fluoro-6-hydroxyphenyl)-6-methyl-1,2,4,4a,5,6-hexahydro-3H-pyrazino[1′,2′:4,5]pyrazino[2,3-c]quinolin-3-yl)prop-2-en-1-one] are 6.88 and 91%.
